Data taken from ChEMBL document CHEMBL3045592, “Studies of O,O-dimethyl α-(2,4-dichlorophenoxyacetoxy)ethylphosphonate (HW02) as a new herbicide. 1. Synthesis and herbicidal activity of HW02 and analogues as novel inhibitors of pyruvate dehydrogenase complex” (J Agric Food Chem, 2011).

Tests used:
[1] = tested on: Cucumis sativus; test: Herbicidal activity against Cucumis sativus Jin 4 (cucumber) assessed as inhibition of stem growth after 3 days; format: functional, organism-based; settings: Jin 4, 72 h
[2] = tested on: Cucumis sativus; test: Herbicidal activity against Cucumis sativus Jin 4 (cucumber) assessed as inhibition of root growth after 3 days; format: functional, organism-based; settings: Jin 4, 72 h
[3] = tested on: Echinochloa crus-galli; test: Pre-emergence herbicidal activity against Echinochloa crus-galli (barnyard grass) assessed as growth inhibition at 1500 ai g/ha after 20 days by green house test; format: functional
[4] = tested on: Amaranthus retroflexus; test: Post-emergence herbicidal activity against Amaranthus retroflexus assessed as growth inhibition at 1500 ai g/ha after 20 days by green house test; format: functional
[5] = tested on: Amaranthus retroflexus; test: Pre-emergence herbicidal activity against Amaranthus retroflexus assessed as growth inhibition at 1500 ai g/ha after 20 days by green house test; format: functional
[6] = tested on: Echinochloa crus-galli; test: Post-emergence herbicidal activity against Echinochloa crus-galli (barnyard grass) assessed as growth inhibition at 1500 ai g/ha after 20 days by green house test; format: functional
[7] = tested on: Digitaria sanguinalis; test: Pre-emergence herbicidal activity against Digitaria sanguinalis (hairy crabgrass) assessed as growth inhibition at 1500 ai g/ha after 20 days by green house test; format: functional
[8] = tested on: Brassica rapa subsp. oleifera; test: Pre-emergence herbicidal activity against Brassica rapa subsp. oleifera Si Yue Man assessed as growth inhibition at 1500 ai g/ha after 20 days by green house test; format: functional
[9] = tested on: Brassica rapa subsp. oleifera; test: Post-emergence herbicidal activity against Brassica rapa subsp. oleifera Si Yue Man assessed as growth inhibition at 1500 ai g/ha after 20 days by green house test; format: functional
[10] = tested on: Digitaria sanguinalis; test: Post-emergence herbicidal activity against Digitaria sanguinalis (hairy crabgrass) assessed as growth inhibition at 1500 ai g/ha after 20 days by green house test; format: functional
[11] = tested on: Medicago sativa; test: Pre-emergence herbicidal activity against Medicago sativa (alfalfa) assessed as growth inhibition at 1500 ai g/ha after 20 days by green house test; format: functional
[12] = tested on: Medicago sativa; test: Post-emergence herbicidal activity against Medicago sativa (alfalfa) assessed as growth inhibition at 1500 ai g/ha after 20 days by green house test; format: functional

Compound	IC50 [1] [µM]	IC50 [2] [µM]	growth inhibition (GI) [3]	growth inhibition (GI) [4]	growth inhibition (GI) [5]	growth inhibition (GI) [6]	growth inhibition (GI) [7]	growth inhibition (GI) [8]	growth inhibition (GI) [9]	growth inhibition (GI) [10]	growth inhibition (GI) [11]	growth inhibition (GI) [12]
CCCC(OC(=O)C(C)Oc1ccc(Cl)cc1Cl)P(=O)(OC)OC (centres undefined)	13.7	2.98										
CCOP(=O)(OCC)C(C)OC(=O)C(C)Oc1ccc(Cl)cc1Cl (centres undefined)		1.08										
CCCC(OC(=O)COc1ccc(Cl)cc1Cl)P(=O)(OC)OC (centres undefined)	9.34	0.0075										
COP(=O)(OC)C(OC(=O)C(C)Oc1ccc(Cl)cc1Cl)c1ccccc1 (centres undefined)	30.1											
CCCOP(=O)(OCCC)C(OC(=O)C(C)Oc1ccc(Cl)cc1Cl)c1ccccc1Cl (centres undefined)	164	12.1										
CCOP(=O)(COC(=O)COc1ccc(Cl)cc1Cl)OCC	13.4											
COP(=O)(OC)C(OC(=O)COc1ccc(Cl)cc1Cl)c1cccc([N+](=O)[O-])c1 (centres undefined)	5.02	0.0034	50%	90%	90%	<=50%	<=50%	90%	90%	<=50%	90%	90%
COP(=O)(OC)C(C)OC(=O)C(C)Oc1ccc(Cl)cc1Cl (centres undefined)	6.74	1.42										
CCC(OC(=O)COc1ccc(Cl)cc1Cl)P(=O)(OC)OC (centres undefined)	14	0.327	75%	90%	90%	50%	75%	90%	90%	50%	90%	90%
CCCOP(=O)(OCCC)C(C)OC(=O)C(C)Oc1ccc(Cl)cc1Cl (centres undefined)	18	2.44										
CCOP(=O)(OCC)C(OC(=O)COc1ccc(Cl)cc1Cl)c1ccccc1 (centres undefined)	109	0.0488										
CCOP(=O)(OCC)C(OC(=O)COc1ccc(Cl)cc1Cl)c1ccccc1Cl (centres undefined)		1.49										
CCOP(=O)(OCC)C(CC)OC(=O)COc1ccc(Cl)cc1Cl (centres undefined)	25.7	0.31										
COP(=O)(OC)C(OC(=O)COc1ccc(F)c(Cl)c1)c1cccc([N+](=O)[O-])c1 (centres undefined)			50%	75%	50%	50%	<=50%	<=50%	50%	75%	50%	50%
COP(=O)(OC)C(C)OC(=O)COc1cccc(C)c1C (centres undefined)			75%	50%	75%	50%	<=50%	90%	75%	<=50%	75%	50%
COP(=O)(OC)C(C)OC(=O)COc1ccc(Cl)cc1[N+](=O)[O-] (centres undefined)			<=50%	<=50%	<=50%	<=50%	<=50%	<=50%	<=50%	<=50%	<=50%	<=50%
COP(=O)(OC)C(OC(=O)COc1ccccc1F)c1cccc([N+](=O)[O-])c1 (centres undefined)			<=50%	<=50%	<=50%	90%	<=50%	<=50%	<=50%	<=50%	<=50%	<=50%
COP(=O)(OC)C(C)OC(=O)COc1cccc(Cl)c1Cl (centres undefined)			<=50%	50%	<=50%	<=50%	<=50%	<=50%	<=50%	<=50%	<=50%	<=50%
COP(=O)(OC)C(C)OC(=O)COc1ccc(Cl)cc1 (centres undefined)			90%	90%	90%	<=50%	90%	90%	75%	<=50%	90%	50%
COP(=O)(OC)C(C)OC(=O)COc1ccc(Cl)c(C)c1 (centres undefined)			75%	50%	75%	<=50%	75%	90%	50%	<=50%	75%	50%
COP(=O)(OC)C(OC(=O)COc1ccc(F)cc1Cl)c1cccc([N+](=O)[O-])c1 (centres undefined)			90%	90%	90%	75%	90%	90%	75%	50%	90%	50%
COP(=O)(OC)C(OC(=O)COc1cccc(C(F)(F)F)c1)c1cccc([N+](=O)[O-])c1 (centres undefined)			<=50%	<=50%	50%	50%	<=50%	50%	50%	<=50%	50%	<=50%
CCCOP(=O)(OCCC)C(OC(=O)C(C)Oc1ccc(Cl)cc1Cl)c1ccccc1 (centres undefined)	44.3	4.52										
COP(=O)(OC)C(OC(=O)COc1ccc(F)cc1F)c1ccccc1 (centres undefined)			75%	90%	50%	<=50%	<=50%	<=50%	<=50%	<=50%	50%	<=50%
COP(=O)(OC)C(OC(=O)COc1ccc(Cl)cc1)c1cccc([N+](=O)[O-])c1 (centres undefined)			90%	75%	90%	75%	90%	90%	75%	50%	90%	75%
